Test results: patent US4725591A, “β-lactamase inhibitory composition” (Takeda Chemical Industries, Ltd., priority 1980, dated 1988)

Experiments:
[1] = target: T1, β-lactamase produced by Enterobacter cloacae IFO 12937 (Enterobacter cloacae, UniProt P05364); assay: Inhibitor concentration required to inhibit β-lactamase (cephalosporinase) activity by 50%, micro-iodometric method; format: biochemical; details: Enterobacter cloacae IFO 12937 cephalosporinase; 0.05M phosphate buffer pH 7, 30° C., 10 minutes preincubation; cephalothin or ampicillin 0.1 mM; read-out: I50 (converted)
T1 construct: The β-lactamase produced by Enterobacter cloacae IFO 12937; endogenous in cells; host or cells: Enterobacter cloacae IFO 12937
Description: (§1) Determination of the inhibitor concentration required to inhibit the enzyme activity by 50%
(§2) The β-lactamase produced by Enterobacter cloacae IFO 12937 is used as a typical example of cephalosporinase, and that produced by Staphylococcus aureus 1840 as typical example of penicillinase. The β-lactamase in incubated is 0.05M phosphate buffer (pH 7) with an appropriate dilution of an inhibitor preparation at 30° C. for 10 minutes. Cephalothin or ampicillin is then added in an amount sufficient to produce a final concentration of 0.1 mM, and the enzymatic reaction is allowed to proceed for 10 minutes. The enzyme activity is determined by the micro-iodometric method [Journal of general Microbiology, vol. 33, page 121 (1963)]. Hereinafter, the inhibitor concentration required to inhibit the enzyme activity by 50% is expressed as I50. The I50 values for Enterobacter cloaceae are shown in Table 1, and the I50 values for Staphylococcus aureus in Table 2.

Proteus vulgaris GN 5297 = assay: Synergy with Cefotiam, agar dilution MIC; format: cell-based; details: 18 hours; for MIC of Cefotiam with 1 μg/ml of Compound: inoculum 10^8 per ml; for MIC of Cefotiam alone: Trypticase soy agar, unit assumed
Description: (§3) The inoculum concentration is 10^8 per ml, and the medium is prepared by using Trypticase® soy agar (Becton Dickinson & Company, USA).

[2] = tested on: Citrobacter freundii TN 512; assay: Synergy with Cefotiam, agar dilution MIC; format: cell-based; details: 18 hours; for MIC of Cefotiam with 1 μg/ml of Compound: Table 4, 1 μg/ml test compound in agar, inoculum 10^8 per ml
Description: as §3

Proteus morganii TN 387 = assay: Synergy with Cefotiam, agar dilution MIC; format: cell-based; details: 18 hours; for MIC of Cefotiam with 1 μg/ml of Compound: Table 4, 1 μg/ml test compound in agar, inoculum 10^8 per ml
Description: as §3

[3] = tested on: Citrobacter freundii GN 1706; assay: Synergy with Cefotiam, agar dilution MIC; format: cell-based; details: 18 hours; for MIC of Cefotiam with 1 μg/ml of Compound: inoculum 10^8 per ml; for MIC of Cefotiam alone: Trypticase soy agar, unit assumed
Description: as §3

[4] = tested on: Enterobacter cloacae IFO 12937; assay: Synergy with Cefotiam, agar dilution MIC; format: cell-based; details: 18 hours; for MIC of Cefotiam with 1 μg/ml of Compound: Table 4, 1 μg/ml test compound in agar, inoculum 10^8 per ml
Description: as §3

[5] = tested on: Citrobacter freundii IFO 12681; assay: Synergy with Cefotiam, agar dilution MIC; format: cell-based; details: 18 hours; for MIC of Cefotiam with 1 μg/ml of Compound: Table 3, 1 μg/ml test compound in agar, inoculum 10^8 per ml
Description: as §3

[6] = tested on: Serratia marcescens IFO 12648; assay: Synergy with Cefotiam, agar dilution MIC; format: cell-based; details: 18 hours; for MIC of Cefotiam with 1 μg/ml of Compound: Table 3, 1 μg/ml test compound in agar, inoculum 10^8 per ml
Description: as §3

[7] = tested on: Proteus morganii IFO 3168; assay: Synergy with Cefotiam, agar dilution MIC; format: cell-based; details: 18 hours; for MIC of Cefotiam with 1 μg/ml of Compound: Table 3, 1 μg/ml test compound in agar, inoculum 10^8 per ml
Description: as §3

[8] = tested on: Enterobacter cloacae TN 587; assay: Synergy with Cefotiam, agar dilution MIC; format: cell-based; details: 18 hours; for MIC of Cefotiam with 1 μg/ml of Compound: Table 3, 1 μg/ml test compound in agar, inoculum 10^8 per ml
Description: as §3

[9] = target: T2, β-lactamase produced by Staphylococcus aureus 1840 (Staphylococcus aureus, UniProt P00807); assay: Inhibitor concentration required to inhibit β-lactamase (penicillinase) activity by 50%, micro-iodometric method; format: biochemical; details: Staphylococcus aureus 1840 penicillinase; 0.05M phosphate buffer pH 7, 30° C., 10 minutes preincubation; cephalothin or ampicillin 0.1 mM; read-out: I50 (converted)
T2 construct: endogenous in cells; host or cells: Staphylococcus aureus 1840
Description: as §1, §2

[10] = Table 4, 1 μg/ml test compound in agar
[11] = Table 3, 1 μg/ml test compound in agar
[12] = Table 4, inoculum 10^8 per ml, Trypticase soy agar, unit assumed
[13] = Table 3, inoculum 10^8 per ml, Trypticase soy agar, unit assumed

T1 sequence (P05364 21-381): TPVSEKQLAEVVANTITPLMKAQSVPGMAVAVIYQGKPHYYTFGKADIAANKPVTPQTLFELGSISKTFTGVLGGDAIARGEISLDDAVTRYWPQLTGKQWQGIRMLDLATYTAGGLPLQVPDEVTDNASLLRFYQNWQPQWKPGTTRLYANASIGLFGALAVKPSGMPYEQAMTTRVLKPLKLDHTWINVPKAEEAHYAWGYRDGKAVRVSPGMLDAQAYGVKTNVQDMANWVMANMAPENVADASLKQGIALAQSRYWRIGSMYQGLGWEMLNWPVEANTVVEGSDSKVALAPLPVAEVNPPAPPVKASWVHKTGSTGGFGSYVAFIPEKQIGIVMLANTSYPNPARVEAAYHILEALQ
T2 sequence (P00807 25-281): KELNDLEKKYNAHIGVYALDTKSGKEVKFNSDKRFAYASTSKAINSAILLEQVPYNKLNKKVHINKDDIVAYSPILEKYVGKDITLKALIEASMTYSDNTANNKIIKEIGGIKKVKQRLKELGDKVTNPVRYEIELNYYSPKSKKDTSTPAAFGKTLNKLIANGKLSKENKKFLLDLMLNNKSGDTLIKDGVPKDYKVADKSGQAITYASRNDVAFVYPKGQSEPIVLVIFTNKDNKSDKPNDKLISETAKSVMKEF

Structure (SMILES)	IC50 [1] [nM]	MIC of Cefotiam with 1 μg/ml of Compound (Proteus vulgaris GN 5297; [10])	MIC of Cefotiam with 1 μg/ml of Compound [2]	MIC of Cefotiam with 1 μg/ml of Compound (Proteus morganii TN 387)	MIC of Cefotiam with 1 μg/ml of Compound [3, 10]	MIC of Cefotiam with 1 μg/ml of Compound [4]	further results
CC(C)(C)OC(=O)C(C)(C)ON=C(C(=O)NC1CN(S(=O)(=O)[O-])C1=O)c1csc(NS(=O)(=O)[O-])n1.[Na+].[Na+] (centres unmarked)	9.14	< 0.2	0.39	0.2	3.13	0.39	–
CC(C)ON=C(C(=O)NC1CN(S(=O)(=O)[O-])C1=O)c1csc(NS(C)(=O)=O)n1.[Na+] (centres unmarked)	4.4	–	–	–	–	–	MIC of Cefotiam with 1 μg/ml of Compound (Proteus vulgaris GN 5297; [11]): 100; MIC of Cefotiam with 1 μg/ml of Compound [3, 11]: 100; MIC of Cefotiam with 1 μg/ml of Compound [5]: 12.5; MIC of Cefotiam with 1 μg/ml of Compound [6]: 200; MIC of Cefotiam with 1 μg/ml of Compound [7]: 25; MIC of Cefotiam with 1 μg/ml of Compound [8]: 12.5
CC(C)ON=C(C(=O)NC1CN(S(=O)(=O)[O-])C1=O)c1csc(=N)n1S(C)(=O)=O.[Na+] (centres unmarked)	4.19	–	–	–	–	–	MIC of Cefotiam with 1 μg/ml of Compound (Proteus vulgaris GN 5297; [11]): 100; MIC of Cefotiam with 1 μg/ml of Compound [3, 11]: 50; MIC of Cefotiam with 1 μg/ml of Compound [5]: 6.25; MIC of Cefotiam with 1 μg/ml of Compound [6]: 200; MIC of Cefotiam with 1 μg/ml of Compound [7]: 50; MIC of Cefotiam with 1 μg/ml of Compound [8]: 3.13
CN(C)CCn1nnnc1SCC1=C(C(=O)O)N2C(=O)[C@@H](NC(=O)Cc3csc(N)n3)[C@H]2SC1 [Cefotiam, reference compound]	–	–	–	–	–	–	MIC of Cefotiam alone (Proteus vulgaris GN 5297; Table 3, inoculum 10^8 per ml): 100 µg/mL; MIC of Cefotiam alone (Proteus vulgaris GN 5297; Table 4, inoculum 10^8 per ml): 400 µg/mL; MIC of Cefotiam alone [2, 12]: 625 µg/mL; MIC of Cefotiam alone (Proteus morganii TN 387; [12]): 200 µg/mL; MIC of Cefotiam alone ([3]; Table 3, inoculum 10^8 per ml): 200 µg/mL; MIC of Cefotiam alone ([3]; Table 4, inoculum 10^8 per ml): 50 µg/mL; MIC of Cefotiam alone [5, 13]: 200 µg/mL; MIC of Cefotiam alone [6, 13]: > 400 µg/mL; MIC of Cefotiam alone [7, 13]: 400 µg/mL; MIC of Cefotiam alone [4, 12]: 100 µg/mL; MIC of Cefotiam alone [8, 13]: > 400 µg/mL
COC1(NC(=O)[C@H](NC(=O)N2CCN(N=Cc3ccco3)C2=O)c2ccccc2)CN(S(=O)(=O)O)C1=O (some centres unmarked) [Compound 3]	617	400	0.39	0.39	12.5	3.13	–
Cc1onc(-c2c(Cl)cccc2Cl)c1C(=O)NC1CN(S(=O)(=O)O)C1=O (centres unmarked) [Compound 9]	162	100	0.39	< 0.2	3.13	0.39	–
CON=C(C(=O)NC1CN(S(=O)(=O)O)C1=O)c1csc(N)n1 (centres unmarked) [Compound 12]	4010	25	< 0.2	25	25	0.2	–
Cc1onc(-c2c(Cl)cccc2Cl)c1C(=O)N[C@@H](C(=O)NC1CN(S(=O)(=O)O)C1=O)c1cccs1 (stereo partly drawn) [Compound 25, Sodium 3-[D-2-[[3-(2,6-dichlorophenyl)-5-methylisoxazol-4-yl]-carboxamido]-2-thienylacetamido]-2-oxoazetidine-1-suflonate]	6440	–	–	–	–	–	IC50 [9]: 715 nM
CC(C)(C)OC(=O)C(C)(C)ON=C(C(=O)NC1CN(S(=O)(=O)O)C1=O)c1csc(NC(c2ccccc2)(c2ccccc2)c2ccccc2)n1 (centres unmarked) [Compound 27, Sodium 3-[2-(2-tritylaminothiaozl-4-yl)-2-[(1-tert-butoxycarbonyl-1-methylethoxy)imino]acetamido]-2-oxoazetidine-1-sulfonate]	69.5	< 0.2	0.39	< 0.2	3.13	0.39	–
CC(C)ON=C(C(=O)NC1CN(S(=O)(=O)O)C1=O)c1csc(NC(=O)CCl)n1 (centres unmarked) [Compound 28, Sodium 3-[2-(2-chloroacetamidothiazol-4-yl)-2-(1-methylethoxyimino)acetamido]-2-oxoazetidine-1-sulfonae]	2420	–	–	–	–	–	MIC of Cefotiam with 1 μg/ml of Compound (Proteus vulgaris GN 5297; [11]): 100; MIC of Cefotiam with 1 μg/ml of Compound [3, 11]: 50; MIC of Cefotiam with 1 μg/ml of Compound [5]: 50; MIC of Cefotiam with 1 μg/ml of Compound [6]: 200; MIC of Cefotiam with 1 μg/ml of Compound [7]: 100; MIC of Cefotiam with 1 μg/ml of Compound [8]: 50
CON=C(C(=O)NC1CN(S(=O)(=O)O)C1=O)c1csc(NS(=O)(=O)O)n1 (centres unmarked) [Compound 29]	163	200	0.39	100	12.5	0.78	–
CCOC(=O)C(C(=O)c1ccccc1)=C1SC(C(=O)NC2CN(S(=O)(=O)O)C2=O)S1 (centres unmarked) [Compound 54]	–	–	–	–	–	–	IC50 [9]: 2540 nM
